Assays:
[1] = Oral bioavailability / plasma pharmacokinetics of devimistat formulations in mice; parameters: species or system BALB/c nude mice; conditions: mouse, in vivo
Protocol: […]; 5 mL/kg; Ex. 7A); (2) 5 μL/g IP injection of the triethanolamine/dextrose aqueous solution of Example 7 (25 mg/kg; 5 mL/kg; 7A); (3) 5 μL/g oral administration of the Eudragit L100 SDD suspension of Example 7 (100 mg/kg; 5 mL/kg; 7B); (4) 5 μL/g oral administration of the HPMCAS-M SDD suspension of Example 7 (100 mg/kg; 5 mL/kg; 7C); (5) 5 μL/g oral administration of the 20 mg/mL devimistat suspension of Example 7 (100 mg/kg; 5 mL/kg; 7D); or (6) 10 μL/g oral administration of the 10 mg/mL SOLUTOL solution of Example 7 (100 mg/kg; 10 mL/kg; 7E). In each experiment, about 80 μL of blood was collected from one subgroup of 4 male and 4 female mice at 0.083, 1, 4, and 24 hours after dosing, and from the other subgroup of 4 male and 4 female mice at 0.5, 2, and 8 hours. Plasma from the collected blood samples was analyzed by LC-MS/MS for the presence of devimistat.

[2] = tested on: AsPC1 cells; test: Devimistat-induced cell death (ATP after recovery) in AsPC1 cells; type: cell-based, human; conditions: exogenous nutrient-free conditions
Protocol: Cells were plated at 80% confluency in complete RPMI in black, clear bottom 96-well plates or 35-mm dishes for ATP, protein and glycogen analysis, or glass coverslips for fluorescence visualization. […] Prior to drug treatment, cells were incubated in a nutrient-free carbonate buffered salt solution (CBS2) for 3 hours. Drug treatments were then carried out in CBS2 with addition of nutrient sources and/or chemical agents as described in the Examples and Figures.
LOGIC: High throughput, plate reader assays for cell death essentially always ultimately depend on metabolic activity of cells to identify viability, directly or indirectly. Thus, strong inhibition of metabolic activity by anti-metabolism agents like those described herein can confound cell death analysis by such assays. […] The inventors thus used a recovery-based assay wherein cells are treated with anti-metabolic agents under conditions where mitochondrial metabolism is (or becomes) limiting on viability. After experimental treatment, drug and media are removed and cells are allowed to recover in serum-free RPMI. RPMI provides high levels of glucose in support of glycolytic ATP generation (independently of mitochondrial function), allowing viable cells to recover ATP levels that are ultimately measured in the plate assay to score cell viability.
Survival is assessed by conventional luminescence measurement of ATP levels after this recovery.
TECHNICAL DETAILS: Immediately after drug treatments, acute ATP levels of cells in black, clear bottom 96-well plates were measured using the CellTiter-Glo® Luminescent Cell Viability Assay (catalog #G775B) following Promega (Madison, WI) protocols. […] After this recovery period ATP levels were measured using the CellTiter-Glo® Luminescent Cell Viability Assay as described above.
Survival is assessed by conventional luminescence measurement of ATP levels after this recovery. See the Methods section above for a detailed description of this assay and its validation.

[3] = tested on: BxPC-3 xenografts; test: Oral devimistat in BxPC3 pancreatic cancer xenografts; type: in vivo, mice; conditions: weekly for 4 weeks
Protocol: An acclimation period of 7 days was allowed between the arrival of the animal at the study site before tumor inoculation and experimentation. Mice were inoculated subcutaneously (SC) in the right flank with 2×10^6 human H460 NSCLC or BxPC3 pancreatic cancer cells that were suspended in 0.1 mL of Dulbeco's Phosphate Buffered Salt (PBS) solution using a 1 cc syringe with a 27⅝ gauge needle. Tumor dimensions (length and width) were measured daily before, during and after treatment (using Vernier calipers) and the tumor volume was calculated using the prolate ellipsoid formula: (length×width^2)/2. Treatment with test or control articles began 8 days post tumor cell implantation when the tumor was approximately 300 mm^3.
A similar study was conducted in CD-1 nude mice (n=9) inoculated with 2×10^6 BxPC-3 cells. The study was initiated when tumors reached an average size of 150 mm^3 (day 0) and devimistat was administered at an oral dose of […] for 4 weeks. A comparator arm (n=9) was conducted with IP treatment at a weekly dose of 25 mg/kg.

[4] = cited from earlier work

Compound: O=C(O)CCCCC(CCSCc1ccccc1)SCc1ccccc1 (centres unmarked) [devimistat, 6,8-bis(benzylsulfanyl)octanoic acid]
- oral bioavailability (in words) [1]: orally bioavailable
- sensitivity of AsPC1 line to devimistat monotherapy [2]: resistant to devimistat monotherapy
- tumor growth in BxPC3 xenografts [3]: especially pronounced
- half-life after IV dosing ([4]; IV dosing): 1 to 2 h
- peak serum concentration after clinical infusion ([4]; clinical IV infusion): ~100 µM

Reference: patent US20240415791A1, “Therapeutic methods and compositions for treating cancer using devimistat and a fatty acid oxidation inhibitor, a tyrosine kinase inhibitor, a glutaminase inhibitor, and/or a glycolysis inhibitor” (Cornerstone Pharmaceuticals, Inc., priority 2021, published 2024)
